Results reported in US20150322051A1, “Macrocyclic picolinamides as fungicides” (Dow AgroSciences LLC, priority 2014, published 2015).
Where two headings read alike, the source gives them in different places.

What was measured:
[1] = tested on: Mycosphaerella graminicola; anamorph: Septoria tritici (SEPTTR); assay: Leaf blotch of wheat (SEPTTR) whole-plant fungicidal test; assay type: in vivo; settings: Zymoseptoria tritici, topical, low volume (track spray) application, 121.5 g/H
[2] = tested on: Puccinia triticina; synonym: Puccinia recondita f. sp. tritici (PUCCRT); assay: Wheat brown rust (PUCCRT) whole-plant fungicidal test; assay type: in vivo; settings: topical, low volume (track spray) application, 121.5 g/H
[3] = tested on: Leptosphaeria nodorum (LEPTNO); assay: Wheat glume blotch (LEPTNO) whole-plant fungicidal test; assay type: in vivo; settings: 1 Day Protectant
[4] = tested on: Uncinula necator (UNCINE); assay: Grape powdery mildew (UNCINE) whole-plant fungicidal test; assay type: in vivo; settings: 1 Day Protectant
[5] = tested on: Erysiphe cichoracearum (ERYSCI); assay: Powdery mildew of cucumber (ERYSCI) whole-plant fungicidal test; assay type: in vivo; settings: 1 Day Protectant
[6] = tested on: Cercospora beticola (CERCBE); assay: Leaf spot of sugar beets (CERCBE) whole-plant fungicidal test; assay type: in vivo; settings: sugar beet, 1 Day Protectant
Method: All fungicides were evaluated using the aforementioned method for their activity vs. all target diseases, unless stated otherwise. Wheat leaf blotch and brown rust activity were also evaluated using track spray applications, in which case the fungicides were formulated as EC formulations, containing 0.1% Trycol 5941 in the spray solutions. Wheat plants (variety Yuma) were grown from seed in a greenhouse in 50% mineral soil/50% soil-less Metro mix until the first leaf was fully emerged, with 7-10 seedlings per pot. These plants were inoculated with an aqueous spore suspension of Septoria tritici either prior to or after fungicide treatments. After inoculation the plants were kept in 100% relative humidity (one day in a dark dew chamber followed by two to three days in a lighted dew chamber at 20° C.) to permit spores to germinate and infect the leaf. The plants were then transferred to a greenhouse set at 20° C. for disease to develop. When disease symptoms were fully expressed on the 1st leaves of untreated plants, infection levels were assessed on a scale of 0 to 100 percent disease severity. Percent disease control was calculated using the ratio of disease severity on treated plants relative to untreated plants. Sugar beet plants (variety HH88) were grown in soil-less Metro mix and trimmed regularly to maintain a uniform plant size prior to test. […]

[7] = tested on: Phakopsora pachyrhizi (PHAKPA); assay: Asian soybean rust (PHAKPA) whole-plant fungicidal test

SMILES: CCCC[C@@H]1[C@@H](Cc2ccc(C(F)(F)F)cc2)CCC[C@H](NC(=O)c2nccc(OC)c2OCOC(C)=O)C(=O)O[C@H]1C [Compound 3]
- pest or weed control at 121.5 g/ha ([1]; 24 h, 1 Day Protectant, read-out: Low Volume activity at 121.5 g/H SEPTTR 1DP (% disease control rating)): > 70%
- pest or weed control at 121.5 g/ha ([1]; 72 h, 3 Day Curative, read-out: Low Volume activity at 121.5 g/H SEPTTR 3DC (% disease control rating)): > 70%
- pest or weed control at 121.5 g/ha ([2]; 24 h, 1 Day Protectant, read-out: Low Volume activity at 121.5 g/H PUCCRT 1DP (% disease control rating)): > 70%
- pest or weed control at 121.5 g/ha ([2]; 72 h, 3 Day Curative, read-out: Low Volume activity at 121.5 g/H PUCCRT 3DC (% disease control rating)): < 70%
- Disease Control at 100 ppm LEPTNO 1DP [3]: A (>70)
- Disease Control at 100 ppm UNCINE 1DP [4]: A (>70)
- Disease Control at 100 ppm ERYSCI 1DP [5]: A (>70)
- Disease Control at 100 ppm CERCBE 1DP [6]: B (≦70)
- Disease Control at 25 ppm PHAKPA 1DP ([7]; 1 Day Protectant): B (≦70)
- Disease Control at 25 ppm PHAKPA 3DC ([7]; 3 Day Curative): B (≦70)
